Test results: patent publication US12161722B2, “Bifunctional heterocyclic compound having BTK degradation function via ubiquitin proteasome pathway, and use thereof” (KOREA RESEARCH INSTITUTE OF CHEMICAL TECHNOLOGY, priority 2021, dated 2024)

These compounds were tested against T1, WT BTK protein (Homo sapiens, UniProt Q06187) (assay: BTK protein degradation assay (Western blotting), WT BTK). Settings: concentration range accounting for 50% degradation of WT BTK protein, TMD-8 or RAMOS cells, 24 hours.
T1 construct: measured for intracellular BTK protein levels by Western blotting; endogenous in cells; host or cells: TMD-8 or RAMOS cells
T1 sequence (Q06187 whole entry): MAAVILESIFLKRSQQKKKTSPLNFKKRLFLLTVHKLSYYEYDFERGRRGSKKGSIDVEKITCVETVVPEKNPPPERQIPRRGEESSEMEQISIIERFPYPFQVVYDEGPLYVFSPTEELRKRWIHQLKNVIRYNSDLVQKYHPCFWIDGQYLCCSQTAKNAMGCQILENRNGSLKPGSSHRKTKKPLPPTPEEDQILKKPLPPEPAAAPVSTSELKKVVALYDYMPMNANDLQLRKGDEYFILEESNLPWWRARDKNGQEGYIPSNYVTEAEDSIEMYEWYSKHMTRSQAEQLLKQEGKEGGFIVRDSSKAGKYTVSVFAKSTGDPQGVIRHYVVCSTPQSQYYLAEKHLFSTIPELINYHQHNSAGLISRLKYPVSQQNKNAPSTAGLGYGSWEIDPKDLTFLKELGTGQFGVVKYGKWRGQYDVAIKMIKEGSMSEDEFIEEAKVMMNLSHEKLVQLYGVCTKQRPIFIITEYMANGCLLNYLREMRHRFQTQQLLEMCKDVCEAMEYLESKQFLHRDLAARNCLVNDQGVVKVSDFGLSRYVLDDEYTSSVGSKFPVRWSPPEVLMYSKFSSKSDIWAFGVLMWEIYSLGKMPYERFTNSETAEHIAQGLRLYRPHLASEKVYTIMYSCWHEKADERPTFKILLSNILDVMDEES
Format: cell-based
Procedure, shortened: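 TMD-8 cells (1×10^6 cells/mL) treated 24 h with compound serial dilutions, then lysed in RIPA. Equal protein loads analysed by Western blot for BTK with GAPDH/β-actin as loading controls; activity binned by concentration giving 50% WT BTK degradation.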
Work on `Cc1cccc(C)c1Nc1nn(C)c2nc(Nc3ccc(N4CCN(CC5CCN(c6ccc7c(c6)C(=O)N(C6CCC(=O)NC6=O)C7=O)CC5)CC4)nn3)ncc12` (stereo not shown) [Compound 268, 5-(4-((4-(6-((3-((2,6-dimethylphenyl)amino)-1-methyl-1H-pyrazolo[3,4-d]pyrimidin-6-yl)amino)pyridazin-3-yl)piperazin-1-yl)methyl)piperidin-1-yl)-2-(2,6-dioxopiperidin-3-yl)isoindoline-1,3-dione] yielded a DC50 of 0.1 to 10 nM.
`Cc1cccc(C)c1Nc1nn(C)c2nc(Nc3ccc4c(c3)CN(CC3CCN(C(=O)CNc5cc6c(cc5F)C(=O)N(C5CCC(=O)NC5=O)C6=O)CC3)CC4)ncc12` (stereo not shown) [Compound 211, 5-((2-(4-((7-((3-((2,6-Dimethylphenyl)amino)-1-methyl-1H-pyrazolo[3,4-d]pyrimidin-6-yl)amino)-3,4-dihydroisoquinolin-2 (1H)-yl)methyl)piperidin-1-yl)-2-oxoethyl)amino)-2-(2,6-dioxopiperidin-3-yl)-6-fluoroisoindoline-1,3-dione] was tested, and the DC50 was 0.1 to 10 nM.
In the case of `Cc1cccc(C)c1Nc1nn(C)c2nc(Nc3ccc(F)c(C4=CCN(C(=O)C5CN(c6ccc7c(c6)C(=O)N(C6CCC(=O)NC6=O)C7=O)C5)CC4)c3)ncc12` (stereo not shown) [Compound 263, 5-(3-(4-(5-((3-((2,6-Dimethylphenyl)amino)-1-methyl-1H-pyrazolo[3,4-d]pyrimidin-6-yl)amino)-2-fluorophenyl)-1,2,3,6-tetrahydropyridine-1-carbonyl)azetidin-1-yl)-2-(2,6-dioxopiperidin-3-yl)isoindoline-1,3-dione], the DC50 was 0.1 to 10 nM.
With `Cc1cccc(C)c1Nc1nn(C)c2nc(Nc3ccc(N4CCN(CC5CCN(C(=O)c6ccc7c(c6)CN(C6CCC(=O)NC6=O)C7=O)CC5)CC4)cc3)ncc12` (stereo not shown) [Compound 256, 3-(5-(4-((4-(4-((3-((2,6-Dimethylphenyl)amino)-1-methyl-1H-pyrazolo[3,4-d]pyrimidin-6-yl)amino)phenyl)piperazin-1-yl)methyl)piperidine-1-carbonyl)-1-oxoisoindolin-2-yl)piperidin-2,6-one] the DC50 was 0.1 to 10 nM.
Compound `Cc1cccc(C)c1Nc1nn(C)c2nc(Nc3ccc(N4CCN(CC5CN(c6ccc7c(n6)CN(C6CCC(=O)NC6=O)C7=O)C5)CC4)cc3)ncc12` (stereo not shown) [Compound 187, 3-(2-(3-((4-(4-((3-((2,6-Dimethylphenyl)amino)-1-methyl-1H-pyrazolo[3,4-d]pyrimidin-6-yl)amino)phenyl)piperazin-1-yl)methyl)azetidin-1-yl)-5-oxo-5,7-dihydro-6H-pyrrolo[3,4-b]pyridin-6-yl)piperidin-2,6-one] has a DC50 of 0.1 to 10 nM.
`Cc1cccc(C)c1Nc1nn(C)c2nc(Nc3ccc4c(c3)CN(C(=O)C3(F)CCN(c5cc6c(cc5F)C(=O)N(C5CCC(=O)NC5=O)C6=O)CC3)CC4)ncc12` (stereo not shown) [Compound 244, 5-(4-(7-((3-((2,6-dimethylphenyl)amino)-1-methyl-1H-pyrazolo[3,4-d]pyrimidin-6-yl)amino)-1,2,3,4-tetrahydroisoquinoline-2-carbonyl)-4-fluoropiperidin-1-yl)-2-(2,6-dioxopiperidin-3-yl)-6-fluoroisoindoline-1,3-dione] gave a DC50 of 0.1 to 10 nM.
For `Cc1cccc(C)c1Nc1nn(C)c2nc(Nc3ccc4c(c3)CN(CC3CCN(C5CN(c6ccc7c(c6)C(=O)N(C6CCC(=O)NC6=O)C7=O)C5)CC3)CC4)ncc12` (stereo not shown) [Compound 147, 5-(3-(4-((7-((3-((2,6-Dimethylphenyl)amino)-1-methyl-1H-pyrazolo[3,4-d]pyrimidin-6-yl)amino)-3,4-dihydroisoquinolin-2 (1H)-yl)methyl)piperidin-1-yl)azetidin-1-yl)-2-(2,6-dioxopiperidin-3-yl)isoindoline-1,3-dione], the DC50 was 0.1 to 10 nM.
For `Cc1cccc(C)c1Nc1nn(C)c2nc(Nc3ccc4c(c3)CN(CC3(NC(=O)C5CCN(c6ccc7c(c6)C(=O)N(C6CCC(=O)NC6=O)C7=O)CC5)CC3)CC4)ncc12` (stereo not shown) [Compound 204, N-(1-((7-((3-((2,6-dimethylphenyl)amino)-1-methyl-1H-pyrazolo[3,4-d]pyrimidin-6-yl)amino)-3,4-dihydroisoquinolin-2 (1H)-yl)methyl)cyclopropyl)-1-(2-(2,6-dioxopiperidin-3-yl)-1,3-dioxoisoindolin-5-yl)piperidine-4-carboxamide], the DC50 was 0.1 to 10 nM.
`Cc1cccc(C)c1Nc1nn(C)c2nc(Nc3ccc(N4CCN(CC5CCN(c6ccc7c(c6)C(=O)N(C6CCC(=O)NC6=O)C7=O)CC5)CC4)cc3)ncc12` (stereo not shown) [Compound 163, 5-(4-((4-(4-((3-((2,6-Dimethylphenyl)amino)-1-methyl-1H-pyrazolo[3,4-d]pyrimidin-6-yl)amino)phenyl)piperazin-1-yl)methyl)piperidin-1-yl)-2-(2,6-dioxopiperidin-3-yl)isoindoline-1,3-dione] gave a DC50 of 0.1 to 10 nM.
`Cc1cccc(C)c1Nc1nn(C)c2nc(Nc3ccc4c(c3)CN(C(=O)CN3CCC(Oc5ccc6c(c5)C(=O)N(C5CCC(=O)NC5=O)C6)CC3)CC4)ncc12` (stereo not shown) [Compound 117, 3-(6-((1-(2-(7-((3-((2,6-dimethylphenyl)amino)-1-methyl-TH-pyrazolo[3,4-d]pyrimidin-6-yl)amino)-3,4-dihydroisoquinolin-2 (1H)-yl)-2-oxoethyl)piperidin-4-yl)oxy)-1-oxoisoindolin-2-yl)piperidin-2,6-one] showed a DC50 of 1000 to 10000 nM.
Work on `Cc1cccc(C)c1Nc1nn(C)c2nc(Nc3ccc4c(c3)CN(CC(=O)NC3CCN(c5ccc6c(c5)C(=O)N(C5CCC(=O)NC5=O)C6=O)CC3)CC4)ncc12` (stereo not shown) [Compound 97, 2-(7-((3-((2,6-dimethylphenyl)amino)-1-methyl-1H-pyrazolo[3,4-d]pyrimidin-6-yl)amino)-3,4-dihydroisoquinolin-2 (1H)-yl)-N-(1-(2-(2,6-dioxopiperidin-3-yl)-1,3-dioxoisoindolin-5-yl)piperidin-4-yl)acetamide] yielded a DC50 of 0.1 to 10 nM.
With `Cc1cccc(C)c1Nc1nn(C)c2nc(Nc3ccc4c(c3)CN(CC(O)CN3CCN(c5ccc6c(c5)C(=O)N(C5CCC(=O)NC5=O)C6=O)CC3)CC4)ncc12` (stereo not shown) [Compound 178, 5-(4-(3-(7-((3-((2,6-Dimethylphenyl)amino)-1-methyl-1H-pyrazolo[3,4-d]pyrimidin-6-yl)amino)-3,4-dihydroisoquinolin-2 (1H)-yl)-2-hydroxypropyl)piperazin-1-yl)-2-(2,6-dioxopiperidin-3-yl)isoindoline-1,3-dione] the DC50 was 0.1 to 10 nM.
`Cc1cccc(C)c1Nc1nn(C)c2nc(Nc3ccc4c(c3)CN(C(=O)CNc3ccc5c(c3)C(=O)N(C3CCC(=O)NC3=O)C5=O)CC4)ncc12` (stereo not shown) [Compound 72, 5-((2-(7-((3-((2,6-Dimethylphenyl)amino)-1-methyl-1H-pyrazolo[3,4-d]pyrimidin-6-yl)amino)-3,4-dihydroisoquinolin-2 (1H)-yl)-2-oxoethyl)amino)-2-(2,6-dioxopiperidin-3-yl)isoindoline-1,3-dione] gave a DC50 of 10 to 1000 nM.
`Cc1cccc(C)c1Nc1nn(C)c2nc(Nc3ccc4c(c3)CN(CC3CCN(c5ccc6c(=O)n(C7CCC(=O)NC7=O)nnc6c5)CC3)C4)ncc12` (stereo not shown) [Compound 74, 3-(7-(4-((5-((3-((2,6-Dimethylphenyl)amino)-1-methyl-1H-pyrazolo[3,4-d]pyrimidin-6-yl)amino)isoindolin-2-yl)methyl)piperidin-1-yl)-4-oxobenzo[d][1,2,3]triazin-3 (4H)-yl)piperidin-2,6-one] was tested, and the DC50 was 10 to 1000 nM.
`Cc1cccc(C)c1Nc1nn(C)c2nc(Nc3ccc4c(c3)CN(C3CCN(C[C@H]5CCN(c6ccc7c(c6)C(=O)N(C6CCC(=O)NC6=O)C7=O)C5)CC3)CC4)ncc12` (stereo partly drawn) [Compound 142, 5-((R)-3-((4-(7-((3-((2,6-dimethylphenyl)amino)-1-methyl-1H-pyrazolo[3,4-d]pyrimidin-6-yl)amino)-3,4-dihydroisoquinolin-2 (1H)-yl)piperidin-1-yl)methyl)pyrrolidin-1-yl)-2-(2,6-dioxopiperidin-3-yl)isoindoline-1,3-dione] showed a DC50 of 0.1 to 10 nM.
Compound `Cc1cccc(C)c1Nc1nn(C)c2nc(Nc3ccc4c(c3)CN(CC3CCN(C(=O)COc5ccc6nnn(C7CCC(=O)NC7=O)c(=O)c6c5)CC3)CC4)ncc12` (stereo not shown) [Compound 48, 3-(6-(2-(4-((7-((3-((2,6-Dimethylphenyl)amino)-1-methyl-1H-pyrazolo[3,4-d]pyrimidin-6-yl)amino)-3,4-dihydroisoquinolin-2 (1H)-yl)methyl)piperidin-1-yl)-2-oxoethoxy)-4-oxobenzo[d][1,2,3]triazin-3 (4H)-yl)piperidin-2,6-one] has a DC50 of 0.1 to 10 nM.
For `Cc1cccc(C)c1Nc1nn(C)c2nc(Nc3ccc(N4CCN(CC5CN(c6ccc7c(c6)C(=O)N(C6CCC(=O)NC6=O)C7=O)C5)CC4)cc3)ncc12` (stereo not shown) [Compound 181, 5-(3-((4-(4-((3-((2,6-Dimethylphenyl)amino)-1-methyl-1H-pyrazolo[3,4-d]pyrimidin-6-yl)amino)phenyl)piperazin-1-yl)methyl)azetidin-1-yl)-2-(2,6-dioxopiperidin-3-yl)isoindoline-1,3-dione], the DC50 was 0.1 to 10 nM.
`Cc1cccc(C)c1Nc1nn(C)c2nc(Nc3ccc4c(c3)CN(C(=O)C3(F)CCN(c5ccc6c(c5)C(=O)N(C5CCC(=O)NC5=O)C6=O)CC3)CC4)ncc12` (stereo not shown) [Compound 243, 5-(4-(7-((3-((2,6-dimethylphenyl)amino)-1-methyl-1H-pyrazolo[3,4-d]pyrimidin-6-yl)amino)-1,2,3,4-tetrahydroisoquinoline-2-carbonyl)-4-fluoropiperidin-1-yl)-2-(2,6-dioxopiperidin-3-yl)isoindoline-1,3-dione] was tested, and the DC50 was 0.1 to 10 nM.
With `Cc1cccc(C)c1Nc1nn(C)c2nc(Nc3ccc4c(c3)CN(CC3CCN(C(=O)CCc5cccc6c5CN(C5CCC(=O)NC5=O)C6=O)CC3)CC4)ncc12` (stereo not shown) [Compound 64, 3-(4-(3-(4-((7-((3-((2,6-Dimethylphenyl)amino)-1-methyl-1H-pyrazolo[3,4-d]pyrimidin-6-yl)amino)-3,4-dihydroisoquinolin-2 (1H)-yl)methyl)piperidin-1-yl)-3-oxopropyl)-1-oxoisoindolin-2-yl)piperidin-2,6-one] the DC50 was 0.1 to 10 nM.
